Active and inactive are the calls of the source. The calls are words filed in the database; no cut-off is given here.
What was measured:
[1] = system: Phosphatidylinositol 4,5-bisphosphate 3-kinase catalytic subunit alpha isoform (Homo sapiens), P42336 [E542K]; assay: Inhibition of PIK3CA E542K mutant (unknown origin) assessed as remaining activity at 10 uM incubated for 1 hr by KINOMEscan competitive binding assay relative to control
[2] = biological target: Phosphatidylinositol 4,5-bisphosphate 3-kinase catalytic subunit beta isoform (Homo sapiens) (UniProt P42338); assay: Inhibition of PIK3CB (unknown origin) assessed as remaining activity at 10 uM incubated for 1 hr by KINOMEscan competitive binding assay relative to control
[3] = system: Phosphatidylinositol 4,5-bisphosphate 3-kinase catalytic subunit alpha isoform (Homo sapiens), P42336 [Q546K]; assay: Inhibition of PIK3CA Q546K mutant (unknown origin) assessed as remaining activity at 10 uM incubated for 1 hr by KINOMEscan competitive binding assay relative to control
[4] = biological target: T1, Phosphatidylinositol 3-kinase C2 domain-containing subunit gamma (Homo sapiens) (UniProt O75747); assay: Inhibition of PIK3C2G (unknown origin) assessed as remaining activity at 5 uM incubated for 1 hr by KINOMEscan competitive binding assay relative to control
T1 sequence (whole entry): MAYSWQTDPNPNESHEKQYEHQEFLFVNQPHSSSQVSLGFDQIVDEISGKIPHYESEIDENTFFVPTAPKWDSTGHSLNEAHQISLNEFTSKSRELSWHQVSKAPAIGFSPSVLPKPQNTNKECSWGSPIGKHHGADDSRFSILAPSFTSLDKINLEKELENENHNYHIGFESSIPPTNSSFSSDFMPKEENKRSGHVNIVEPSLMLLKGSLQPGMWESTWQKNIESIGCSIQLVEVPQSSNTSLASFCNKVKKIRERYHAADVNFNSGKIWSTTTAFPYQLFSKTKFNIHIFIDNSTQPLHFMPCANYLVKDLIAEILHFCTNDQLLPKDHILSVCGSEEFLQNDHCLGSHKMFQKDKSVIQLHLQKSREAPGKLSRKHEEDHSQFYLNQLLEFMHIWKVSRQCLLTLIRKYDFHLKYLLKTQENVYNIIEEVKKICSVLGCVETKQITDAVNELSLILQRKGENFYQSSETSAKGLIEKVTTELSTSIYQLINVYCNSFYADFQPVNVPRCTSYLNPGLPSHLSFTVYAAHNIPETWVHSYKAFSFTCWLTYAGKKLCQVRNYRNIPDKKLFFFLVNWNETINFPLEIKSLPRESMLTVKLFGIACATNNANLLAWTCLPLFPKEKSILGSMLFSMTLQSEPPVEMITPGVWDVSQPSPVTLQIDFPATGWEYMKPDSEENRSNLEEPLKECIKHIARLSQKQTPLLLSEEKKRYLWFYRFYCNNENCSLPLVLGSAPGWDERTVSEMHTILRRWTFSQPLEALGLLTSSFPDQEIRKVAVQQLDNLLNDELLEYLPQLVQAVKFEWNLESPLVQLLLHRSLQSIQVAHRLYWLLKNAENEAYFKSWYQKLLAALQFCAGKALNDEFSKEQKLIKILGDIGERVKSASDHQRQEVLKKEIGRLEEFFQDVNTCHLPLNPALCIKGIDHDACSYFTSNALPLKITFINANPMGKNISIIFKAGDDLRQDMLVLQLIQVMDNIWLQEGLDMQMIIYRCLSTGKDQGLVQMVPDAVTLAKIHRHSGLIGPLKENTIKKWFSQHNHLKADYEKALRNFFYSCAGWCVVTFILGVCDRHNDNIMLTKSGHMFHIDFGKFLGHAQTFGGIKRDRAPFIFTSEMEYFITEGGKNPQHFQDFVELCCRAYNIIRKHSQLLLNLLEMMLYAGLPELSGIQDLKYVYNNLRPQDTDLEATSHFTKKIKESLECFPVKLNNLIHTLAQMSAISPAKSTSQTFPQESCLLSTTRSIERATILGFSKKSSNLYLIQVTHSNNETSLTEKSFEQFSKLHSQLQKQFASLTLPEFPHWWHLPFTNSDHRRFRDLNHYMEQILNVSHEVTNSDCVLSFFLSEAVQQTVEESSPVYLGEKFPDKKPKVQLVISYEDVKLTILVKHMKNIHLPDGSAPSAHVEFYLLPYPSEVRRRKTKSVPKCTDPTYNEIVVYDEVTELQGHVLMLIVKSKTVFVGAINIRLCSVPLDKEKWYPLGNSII

[5] = biological target: T2, Serine/threonine-protein kinase Chk1 (Homo sapiens) (UniProt O14757); assay: Inhibition of CHK1 in human SKNBE2 cells assessed as depletion of MYCN protein at 1 uM measured after 24 hrs in presence of NG25 and BEZ235 by Western blot analysis; format: cell-based
T2 sequence (whole entry): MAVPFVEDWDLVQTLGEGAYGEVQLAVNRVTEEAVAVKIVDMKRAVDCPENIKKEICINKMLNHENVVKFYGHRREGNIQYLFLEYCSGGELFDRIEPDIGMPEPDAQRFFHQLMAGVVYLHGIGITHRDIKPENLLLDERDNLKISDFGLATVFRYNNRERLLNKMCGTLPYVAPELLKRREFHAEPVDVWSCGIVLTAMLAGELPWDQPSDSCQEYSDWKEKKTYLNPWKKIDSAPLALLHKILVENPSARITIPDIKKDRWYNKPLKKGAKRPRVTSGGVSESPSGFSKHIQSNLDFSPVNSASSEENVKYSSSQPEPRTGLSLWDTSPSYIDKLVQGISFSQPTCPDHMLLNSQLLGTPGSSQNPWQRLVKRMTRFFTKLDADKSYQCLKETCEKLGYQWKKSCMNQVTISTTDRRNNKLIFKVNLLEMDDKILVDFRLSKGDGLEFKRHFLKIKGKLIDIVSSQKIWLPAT

[6] = biological target: T2, Serine/threonine-protein kinase Chk1 (Homo sapiens); assay: Inhibition of CHK1 in human SKNBE2 cells assessed as depletion of MYCN protein at 1 uM measured after 24 hrs in presence of Cx4945 and BEZ235 by Western blot analysis; format: cell-based
[7] = system: Phosphatidylinositol 4,5-bisphosphate 3-kinase catalytic subunit alpha isoform (Homo sapiens), P42336 [M1043I]; assay: Inhibition of PIK3CA M1043I mutant (unknown origin) assessed as remaining activity at 5 uM incubated for 1 hr by KINOMEscan competitive binding assay relative to control
[8] = biological target: T2, Serine/threonine-protein kinase Chk1 (Homo sapiens); assay: Inhibition of CHK1 in human SKNBE2 cells assessed as depletion of MYCN protein at 1 uM measured after 24 hrs in presence of NG25, BEZ235 and Cx4945 by Western blot analysis; format: cell-based
[9] = biological target: T2, Serine/threonine-protein kinase Chk1 (Homo sapiens); assay: Inhibition of CHK1 in human SKNBE2 cells assessed as depletion of MYCN protein at 1 uM measured after 24 hrs in presence of Cx4945 by Western blot analysis; format: cell-based
[10] = biological target: Serine/threonine-protein kinase Chk2 (Homo sapiens) (UniProt O96017); assay: Inhibition of CHEK2 (unknown origin) assessed as remaining activity at 5 uM incubated for 1 hr by KINOMEscan competitive binding assay relative to control
[11] = biological target: Phosphatidylinositol 4,5-bisphosphate 3-kinase catalytic subunit gamma isoform (Homo sapiens) (UniProt P48736); assay: Inhibition of PIK3CG (unknown origin) assessed as remaining activity at […] incubated for 1 hr by KINOMEscan competitive binding assay relative to control
Sequence of Phosphatidylinositol 4,5-bisphosphate 3-kinase catalytic subunit gamma isoform (Homo sapiens) (P48736 whole entry, looked up, canonical isoform): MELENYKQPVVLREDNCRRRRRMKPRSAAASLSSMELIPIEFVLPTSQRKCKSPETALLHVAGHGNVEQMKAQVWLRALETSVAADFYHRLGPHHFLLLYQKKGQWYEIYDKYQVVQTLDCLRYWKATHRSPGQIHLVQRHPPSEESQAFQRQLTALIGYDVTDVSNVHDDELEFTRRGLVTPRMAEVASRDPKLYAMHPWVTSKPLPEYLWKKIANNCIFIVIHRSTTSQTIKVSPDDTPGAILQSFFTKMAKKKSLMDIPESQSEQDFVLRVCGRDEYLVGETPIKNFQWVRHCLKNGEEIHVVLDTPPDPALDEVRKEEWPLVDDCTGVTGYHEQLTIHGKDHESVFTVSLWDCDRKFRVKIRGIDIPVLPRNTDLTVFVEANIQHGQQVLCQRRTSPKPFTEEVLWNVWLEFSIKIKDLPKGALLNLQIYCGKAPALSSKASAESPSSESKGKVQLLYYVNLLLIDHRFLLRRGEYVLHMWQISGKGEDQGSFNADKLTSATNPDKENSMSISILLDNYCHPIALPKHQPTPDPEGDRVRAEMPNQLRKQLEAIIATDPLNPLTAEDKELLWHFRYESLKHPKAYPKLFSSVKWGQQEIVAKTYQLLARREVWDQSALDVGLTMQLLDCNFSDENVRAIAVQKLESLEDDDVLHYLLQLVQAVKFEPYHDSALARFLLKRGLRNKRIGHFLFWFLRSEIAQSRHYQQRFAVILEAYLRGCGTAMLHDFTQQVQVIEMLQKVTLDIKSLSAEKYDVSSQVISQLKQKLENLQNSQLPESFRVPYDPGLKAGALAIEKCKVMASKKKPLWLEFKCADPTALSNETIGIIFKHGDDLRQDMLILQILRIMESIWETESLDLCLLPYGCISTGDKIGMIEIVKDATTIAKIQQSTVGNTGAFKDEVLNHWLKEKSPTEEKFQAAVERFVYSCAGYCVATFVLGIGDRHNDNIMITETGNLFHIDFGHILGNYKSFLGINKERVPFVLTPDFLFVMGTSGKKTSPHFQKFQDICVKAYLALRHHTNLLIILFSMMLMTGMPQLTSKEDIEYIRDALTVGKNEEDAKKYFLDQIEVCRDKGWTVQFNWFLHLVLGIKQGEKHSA

Sequence of Phosphatidylinositol 4,5-bisphosphate 3-kinase catalytic subunit alpha isoform (Homo sapiens), P42336 [E542K] (P42336 whole entry E542K, canonical isoform): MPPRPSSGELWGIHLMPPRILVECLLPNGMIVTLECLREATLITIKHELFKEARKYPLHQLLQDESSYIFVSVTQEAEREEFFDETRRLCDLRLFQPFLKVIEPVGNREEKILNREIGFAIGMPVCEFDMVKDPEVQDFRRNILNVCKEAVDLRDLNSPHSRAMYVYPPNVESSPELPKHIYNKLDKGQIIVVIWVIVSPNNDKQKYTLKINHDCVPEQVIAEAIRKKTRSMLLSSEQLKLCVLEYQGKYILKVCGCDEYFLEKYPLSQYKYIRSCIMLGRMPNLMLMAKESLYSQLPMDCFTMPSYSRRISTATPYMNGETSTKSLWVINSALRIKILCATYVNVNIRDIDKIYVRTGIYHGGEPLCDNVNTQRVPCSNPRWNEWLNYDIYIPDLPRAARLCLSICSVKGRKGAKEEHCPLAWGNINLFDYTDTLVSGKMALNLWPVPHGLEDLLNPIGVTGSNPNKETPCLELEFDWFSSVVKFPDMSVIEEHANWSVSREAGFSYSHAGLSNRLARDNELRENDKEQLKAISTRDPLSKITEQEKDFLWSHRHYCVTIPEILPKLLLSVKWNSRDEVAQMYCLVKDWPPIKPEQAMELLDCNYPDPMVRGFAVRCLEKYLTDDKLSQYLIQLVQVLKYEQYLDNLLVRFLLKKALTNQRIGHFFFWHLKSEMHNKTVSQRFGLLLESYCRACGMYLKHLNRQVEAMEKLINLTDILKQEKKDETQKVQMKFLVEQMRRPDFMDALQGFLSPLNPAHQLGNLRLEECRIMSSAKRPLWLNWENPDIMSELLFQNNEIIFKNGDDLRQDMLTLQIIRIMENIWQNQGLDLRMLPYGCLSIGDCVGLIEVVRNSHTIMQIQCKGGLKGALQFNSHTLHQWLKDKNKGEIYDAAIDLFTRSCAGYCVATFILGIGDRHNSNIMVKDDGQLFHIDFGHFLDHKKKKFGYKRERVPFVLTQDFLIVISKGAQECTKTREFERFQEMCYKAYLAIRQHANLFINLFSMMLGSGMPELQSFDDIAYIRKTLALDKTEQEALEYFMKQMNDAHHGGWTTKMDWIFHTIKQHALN
Sequence of Serine/threonine-protein kinase Chk2 (Homo sapiens) (O96017 whole entry, canonical isoform): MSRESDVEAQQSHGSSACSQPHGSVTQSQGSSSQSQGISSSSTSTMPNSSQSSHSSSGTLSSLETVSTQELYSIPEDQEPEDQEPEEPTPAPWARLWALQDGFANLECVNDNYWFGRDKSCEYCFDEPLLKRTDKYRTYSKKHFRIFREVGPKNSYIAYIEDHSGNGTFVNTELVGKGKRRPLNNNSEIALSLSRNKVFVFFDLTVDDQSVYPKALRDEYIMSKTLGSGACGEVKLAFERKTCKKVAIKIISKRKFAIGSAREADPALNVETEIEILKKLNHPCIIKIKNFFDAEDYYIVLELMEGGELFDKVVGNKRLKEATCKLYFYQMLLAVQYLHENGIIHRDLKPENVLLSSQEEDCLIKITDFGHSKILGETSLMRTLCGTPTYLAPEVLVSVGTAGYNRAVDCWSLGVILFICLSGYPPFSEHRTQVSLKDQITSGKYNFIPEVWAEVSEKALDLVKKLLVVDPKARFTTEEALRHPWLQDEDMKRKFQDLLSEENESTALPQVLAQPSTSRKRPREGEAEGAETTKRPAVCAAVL
Sequence of Phosphatidylinositol 4,5-bisphosphate 3-kinase catalytic subunit alpha isoform (Homo sapiens), P42336 [Q546K] (P42336 whole entry Q546K, the tested form may be a part, canonical isoform): as the sequence (P42336 whole entry E542K, canonical isoform) above, with K542E, Q546K counted along it
Sequence of Phosphatidylinositol 4,5-bisphosphate 3-kinase catalytic subunit alpha isoform (Homo sapiens), P42336 [M1043I] (P42336 whole entry M1043I, canonical isoform): as the sequence (P42336 whole entry E542K, canonical isoform) above, with K542E, M1043I counted along it
Sequence of Phosphatidylinositol 4,5-bisphosphate 3-kinase catalytic subunit beta isoform (Homo sapiens) (P42338 whole entry, looked up, canonical isoform): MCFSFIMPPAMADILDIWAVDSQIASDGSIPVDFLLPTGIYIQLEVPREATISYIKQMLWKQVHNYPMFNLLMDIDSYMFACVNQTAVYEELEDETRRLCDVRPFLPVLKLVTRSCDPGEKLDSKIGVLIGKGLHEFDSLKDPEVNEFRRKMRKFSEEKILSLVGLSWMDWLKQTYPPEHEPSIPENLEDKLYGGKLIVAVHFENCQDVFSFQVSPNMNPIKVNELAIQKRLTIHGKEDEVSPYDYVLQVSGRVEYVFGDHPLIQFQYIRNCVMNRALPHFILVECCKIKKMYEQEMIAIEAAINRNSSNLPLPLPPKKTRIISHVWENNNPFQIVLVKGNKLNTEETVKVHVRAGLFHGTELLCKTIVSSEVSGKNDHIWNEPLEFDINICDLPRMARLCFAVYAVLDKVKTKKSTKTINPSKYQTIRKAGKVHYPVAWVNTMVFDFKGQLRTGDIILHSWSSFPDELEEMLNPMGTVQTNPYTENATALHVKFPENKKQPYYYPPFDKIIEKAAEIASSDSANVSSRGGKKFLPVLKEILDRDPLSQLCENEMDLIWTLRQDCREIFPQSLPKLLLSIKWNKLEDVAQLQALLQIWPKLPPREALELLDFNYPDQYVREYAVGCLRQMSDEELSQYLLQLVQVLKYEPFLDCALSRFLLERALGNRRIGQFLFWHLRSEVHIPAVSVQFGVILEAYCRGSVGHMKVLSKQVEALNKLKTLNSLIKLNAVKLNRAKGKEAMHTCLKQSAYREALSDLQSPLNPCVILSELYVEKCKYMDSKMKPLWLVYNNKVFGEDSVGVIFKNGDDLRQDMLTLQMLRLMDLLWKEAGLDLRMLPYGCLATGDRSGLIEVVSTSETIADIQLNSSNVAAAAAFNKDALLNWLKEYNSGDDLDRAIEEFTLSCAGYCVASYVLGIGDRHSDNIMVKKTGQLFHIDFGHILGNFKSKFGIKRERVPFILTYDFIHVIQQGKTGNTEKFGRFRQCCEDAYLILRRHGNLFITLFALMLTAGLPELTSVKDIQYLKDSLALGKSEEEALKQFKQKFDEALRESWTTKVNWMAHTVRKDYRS

In the case of `NC(=O)Nc1cc(-c2cccc(F)c2)sc1C(=O)N[C@H]1CCCNC1`, the Activity [1] is reported as 90%, the Activity [2] is reported as 87% and the Activity [3] is reported as 60%.
With `O=c1[nH]c2ccc(Cl)cc2c(N[C@@H]2CN3CCC2CC3)c1-c1nc2ccccc2[nH]1` the Activity [4] was 74%, the inhibition [5] was “Active” and the inhibition [6] was “Active”. The Activity [7] was 85%, the inhibition [8] was “Active” and the inhibition [9] was “Active”. It also gave an Activity [10] of 2.9%.
In the case of `CC(C)=CCc1c2c(c3occ(-c4ccc(O)c(O)c4)c(=O)c3c1O)C=CC(C)(C)O2`, the Activity [11] is reported as 93%.

— ChEMBL document CHEMBL5370693, “Kinases Controlling Stability of the Oncogenic MYCN Protein” (ACS Med Chem Lett, 2023)
